Assays:
HCI-015 = organoid from a triple-negative breast cancer xenograft; assay: CTG-3D luminescence at 96 h relative to day-0 seeding control (ratio to day 0); higher = more growth / less cytotoxicity; PDxO 3D drug screen (set 2), 96 h, CTG-3D normalised to day-0 seeding control.
HCI-025 = organoid from a breast cancer xenograft; assay: CTG-3D luminescence at 96 h relative to day-0 seeding control (ratio to day 0); higher = more growth / less cytotoxicity; PDxO 3D drug screen, 96 h, CTG-3D normalised to day-0 seeding control.
HCI-016 = organoid from a triple-negative breast cancer xenograft; assay: as above
HCI-003.E2 = organoid from an ER-positive breast cancer xenograft; assay: as above
HCI-005.E2 = organoid from a breast cancer xenograft with a HER2-positive history; assay: as above
HCI-019 = organoid from a triple-negative breast cancer xenograft; assay: as above
HCI-011.E2 = organoid from an ER-positive breast cancer xenograft; assay: as above

C[C@@H](Nc1cc(F)cc(F)c1)c1cc(C(=O)N(C)C)cc2c(=O)cc(N3CCOCC3)oc12 [AZD-8186]
CTG-3D luminescence at 96 h, HCI-015
Details	12.5 pM	0.00025 µM	0.005 µM	0.1 µM	1 µM	10 µM	100 µM	625 fM
days in culture: 333	2.09	1.46	1.76	1.33	1.37	0.684	0.452	1.77
days in culture: 355	1.76	3.09	1.3	1.46	1.12	2.35	0.668	1.57
days in culture: 369	2.35	1.7	1.96	1.84	2.18	1.24	1.01	1.96

O=C(/C=C/c1cccnc1)NCCCCC1CCN(C(=O)c2ccccc2)CC1 [FK866]
CTG-3D luminescence at 96 h
Details	12.5 pM	0.00025 µM	0.005 µM	0.1 µM	1 µM	10 µM	100 µM	625 fM
HCI-011.E2, days in culture: 74	2.62	2.62	2.29	1.99	2.77	2.79	2.06	2.32
HCI-016, days in culture: 153	2.99	0.401	0.569	0.026	0.0254	0.0134	0.0183	2.29
HCI-016, days in culture: 172	2.21	1.75	0.508	0.0341	0.0259	0.0131	0.022	1.55
HCI-016, days in culture: 190	1.78	1.44	0.967	0.0245	0.0257	0.0168	0.037	1.08
HCI-016, days in culture: 199	1.45	1.44	0.503	0.0273	0.0129	0.013	0.0134	1.79
HCI-019, days in culture: 110	2.11	0.4	0.0804	0.0554	0.0484	0.0475	0.042	2.64
HCI-019, days in culture: 131	1.91	1.42	0.669	0.542	0.448	0.436	0.137	3.64
HCI-019, days in culture: 152	1.88	1.08	0.557	0.476	0.267	0.142	0.0796	1.93
HCI-025, days in culture: 172	3.12	0.0766	0.075	0.0447	0.0404	0.0184	-0.00051	2.06
HCI-025, days in culture: 209	2.08	1.82	0.314	0.0825	0.0624	0.0413	0.0255	2.16
HCI-025, days in culture: 218	1.78	2.01	0.0772	0.031	0.013	0.00874	0.00784	1.85

CTG-3D luminescence at 96 h
Details	12.5 pM	0.00025 µM	0.005 µM	0.1 µM	1 µM	10 µM	100 µM	625 fM
HCI-003.E2	2.05	2.19	0.395	0.38	0.268	0.302	0.113	1.51
HCI-005.E2	1.39	1.97	1.39	0.142	0.135	0.267	0.166	1.93
HCI-011.E2	1.74	1.7	1.37	1.62	1.48	1.75	1.55	1.87

Cc1c(CN2CCN(C(=O)[C@H](C)O)CC2)sc2c(N3CCOCC3)nc(-c3cnc(N)nc3)nc12 [apitolisib]
CTG-3D luminescence at 96 h, HCI-015
Details	12.5 pM	0.00025 µM	0.005 µM	0.1 µM	1 µM	10 µM	100 µM	625 fM
days in culture: 333	2.19	1.99	1.89	1.33	0.434	0.445	0.394	1.94
days in culture: 355	2.9	4.1	1.01	2.04	0.803	0.711	0.182	1.38
days in culture: 369	2.06	1.76	2.05	1.61	0.917	0.622	0.691	1.69

Nc1cc(C(F)(F)F)c(-c2cc(N3CCOCC3)nc(N3CCOCC3)n2)cn1 [buparlisib]
CTG-3D luminescence at 96 h, HCI-015
Details	12.5 pM	0.00025 µM	0.005 µM	0.1 µM	1 µM	10 µM	100 µM	625 fM
days in culture: 333	2.29	1.36	1.57	1.43	0.645	0.204	0.269	1.16
days in culture: 355	1.31	3.75	1.42	1.76	0.946	0.466	0.46	2.06
days in culture: 369	1.92	1.66	2.47	1.92	0.94	0.378	0.599	1.66

CC(=O)O[C@@]12CO[C@@H]1C[C@H](O)[C@@]1(C)C(=O)[C@H](O)C3=C(C)[C@@H](OC(=O)[C@H](O)[C@@H](NC(=O)OC(C)(C)C)c4ccccc4)C[C@@](O)([C@@H](OC(=O)c4ccccc4)[C@H]21)C3(C)C [docetaxel]
CTG-3D luminescence at 96 h, HCI-015
Details	12.5 pM	0.00025 µM	0.005 µM	0.1 µM	1 µM	10 µM	100 µM	625 fM
days in culture: 333	1.1	0.869	0.428	0.469	0.526	0.304	0.0462	0.76
days in culture: 355	1.2	0.928	0.736	0.737	0.975	0.684	0.105	0.757
days in culture: 369	1.06	0.83	0.967	0.721	0.553	0.702	0.176	1.69

COc1cccc2c1C(=O)c1c(O)c3c(c(O)c1C2=O)C[C@@](O)(C(=O)CO)C[C@@H]3O[C@H]1C[C@H](N)[C@@H](O)[C@H](C)O1 [epirubicin]
CTG-3D luminescence at 96 h, HCI-015
Details	12.5 pM	0.00025 µM	0.005 µM	0.1 µM	1 µM	10 µM	100 µM	625 fM
days in culture: 333	2.58	1.36	1.49	0.405	0.191	0.0651	0.000859	1.94
days in culture: 355	2.99	2	0.533	0.761	0.192	0.0805	0.00144	1.85
days in culture: 369	2	1.58	2.14	0.514	0.143	0.117	0.000973	2.07

CO[C@H]1C[C@@H]2CC[C@@H](C)[C@@](O)(O2)C(=O)C(=O)N2CCCC[C@H]2C(=O)O[C@H]([C@H](C)C[C@@H]2CC[C@@H](OCCO)[C@H](OC)C2)CC(=O)[C@H](C)/C=C(\C)[C@@H](O)[C@@H](OC)C(=O)[C@H](C)C[C@H](C)/C=C/C=C/C=C/1C [everolimus]
CTG-3D luminescence at 96 h, HCI-015
Details	12.5 pM	0.00025 µM	0.005 µM	0.1 µM	1 µM	10 µM	100 µM	625 fM
days in culture: 333	1.5	1.05	0.891	0.744	0.932	0.782	0.00101	1.51
days in culture: 355	2.02	1.85	1.47	1.79	0.526	0.358	-0.00285	1.7
days in culture: 369	1.97	1.19	1.91	1.52	1.84	1.12	-0.00186	1.61

CS(=O)(=O)CCNCc1ccc(-c2ccc3ncnc(Nc4ccc(OCc5cccc(F)c5)c(Cl)c4)c3c2)o1 [lapatinib]
CTG-3D luminescence at 96 h, HCI-015
Details	12.5 pM	0.00025 µM	0.005 µM	0.1 µM	1 µM	10 µM	100 µM	625 fM
days in culture: 333	1.35	1.46	1.34	1.08	0.661	0.251	0.00814	2.63
days in culture: 355	3.61	3.24	1.08	1.64	1.45	0.567	0.0071	2.45
days in culture: 369	2.34	1.5	2.2	1.6	2.32	0.511	0.0242	1.79

O=C(c1cc(Cc2n[nH]c(=O)c3ccccc23)ccc1F)N1CCN(C(=O)C2CC2)CC1 [olaparib]
CTG-3D luminescence at 96 h, HCI-015
Details	12.5 pM	0.00025 µM	0.005 µM	0.1 µM	1 µM	10 µM	100 µM	625 fM
days in culture: 333	1.88	1.11	1.59	1.95	0.972	0.511	0.241	1.03
days in culture: 355	2.43	3.28	1.71	1.6	0.993	0.516	0.951	2.1
days in culture: 369	2.43	1.41	2.36	1.91	1.9	1.05	1.24	2.02

CC(=O)c1c(C)c2cnc(Nc3ccc(N4CCNCC4)cn3)nc2n(C2CCCC2)c1=O [palbociclib]
CTG-3D luminescence at 96 h, HCI-015
Details	12.5 pM	0.00025 µM	0.005 µM	0.1 µM	1 µM	10 µM	100 µM	625 fM
days in culture: 333	1.88	1.26	1.44	0.877	0.941	0.44	0.369	1.89
days in culture: 355	3.11	2.44	1.74	3.47	0.976	1.99	0.775	1.74
days in culture: 369	2.19	1.75	2.45	1.9	1.82	1.07	0.742	1.94

CO[C@H]1C[C@@H]2CC[C@@H](C)[C@@](O)(O2)C(=O)C(=O)N2CCCC[C@H]2C(=O)O[C@H]([C@H](C)C[C@@H]2CC[C@@H](O)[C@H](OC)C2)CC(=O)[C@H](C)/C=C(\C)[C@@H](O)[C@@H](OC)C(=O)[C@H](C)C[C@H](C)/C=C/C=C/C=C/1C [rapamycin]
CTG-3D luminescence at 96 h, HCI-015
Details	12.5 pM	0.00025 µM	0.005 µM	0.1 µM	1 µM	10 µM	100 µM	625 fM
days in culture: 333	1.29	0.897	0.593	1.1	0.612	0.447	0.0119	1.04
days in culture: 355	1.27	2.02	0.979	1.55	1.15	1.05	0.0149	1.06
days in culture: 369	1.79	1.03	1.2	1.39	1.48	0.955	0.00715	1.62

— the supplement of paper PMC8882468
